Measured values published in patent publication US10478157B2, “Methods for drug delivery” (Presage Biosciences, Inc., priority 2011, dated 2019).

Test system: mouse xenograft of Human Lymphoma Ramos cell line
Test: Vincristine delivered through a microdialysis probe into a solid tumor; Cleaved Caspase 3 / DAPI staining
Format: in vivo
Conditions: intratumoral delivery by microdialysis probe; Cleaved Caspase 3 Fluorophore 555 for cell death, DAPI nuclear stain; FIG. 13
From the text: FIGS. 13a and 13b show drug delivered through microdialysis probe induces spatially restricted drug specific tumor cell death embodying principles of the present invention.
Little or no evidence of tissue disruption due to insertion was observed. The membrane maintained its integrity through insertion and tissue processing, including microtome sectioning. The solid tumor is a mouse xenograft of Human Lymphoma Ramos cell line. The biomarkers are DAPI for nuclear stain and Cleaved Caspase 3 Fluorophore 555 for cell death in response to Vincristine as delivery agent.

CC[C@]1(O)C[C@H]2CN(CCc3c([nH]c4ccccc34)[C@@](C(=O)OC)(c3cc4c(cc3OC)N(C=O)[C@H]3[C@@](O)(C(=O)OC)[C@H](OC(C)=O)[C@]5(CC)C=CCN6CC[C@]43[C@@H]65)C2)C1 [Vincristine]
triggered cellular response (Cleaved Caspase 3 biomarker for cell death) around the delivery axis: clear manifestation of triggered cellular response
